In patent US5451583A, “Substituted benzimidazoles and quinazolines as antihypertensives” (American Home Products Corporation, priority 1994, dated 1995):
Structures can show the parent of a compound that is named as a salt.

What follows are compounds tested on A II-infused rat (assay: A II-infused rat model (ganglion-blocked), antihypertensive action). Settings: 3 mg/kg id (intraduodenal), four hours post-administration.
Assay type: in vivo
Experimental: In accordance with their ability to antagonize angiotensin II, the compounds of this invention show antihypertensive action in the following A II-infused rat model. Rats are anesthetized with Dial-Urethane (0.60 mL/kg, ip) and the trachea cannulated with PE 240. Either one femoral artery and both femoral veins or the carotid artery and the corresponding jugular vein are cannulated with PE 50. If the jugular vein is cannulated, two cannulas are placed in the one vein. The initial portion of the duodenum (just distal to the stomach) is cannulated with PE 50 via a small midline incision. Arterial pressure and heart rate are measured from the arterial cannula. Ten to 15 min are allowed following surgery for stabilization of arterial pressure. Ganglion blockade is then produced by intravenous administration of mecamylamine at 3 mg/kg (1 mL/kg of a 3 mg/mL solution). Ganglion blockade causes a fall in arterial pressure of about 50 mmHg. Mecamylamine is given every 90 min throughout the remainder of the experiment. An A II infusion is then begun into the other venous cannula at 0.25 μg/kg/min (at […]). The A II infusion returns arterial pressure to or slightly above the control level. Once arterial pressure has stabilized with the A II infusion, baseline values for mean arterial pressure (MAP) and heart rate are taken. […]

Structure (SMILES) | lowering of A II dependent blood pressure, average
FC(F)(F)c1nc2c(c(NCc3ccc(-c4ccccc4-c4nn[nH]n4)nc3)n1)CCCC2 [Example 9] | 70%

The compounds below were run against angiotensin II receptor (assay: rat adrenal receptor binding assay, displacement of radiolabeled (125I) angiotensin II). Settings: rat adrenal cortex membranes; 1 nM 125I-A II; 35 min at 25° C.; pH 7.4; read-out: IC50, Inhibition of 125I Angiotensin II Binding.
Experimental: The high affinity of the compounds for the angiotensin II receptor was established using a rat adrenal receptor binding assay, measuring the displacement of radiolabeled angiotensin II from the receptor, described as follows: Anesthetize male Sprague-Dawley rats (300-400 g body weight) with CO2 and sacrifice by cervical dislocation. Dissect adrenal glands and keep in ice-cold sucrose buffer (0.2M sucrose, 1 mM EDTA, 10 mM Trizma base, pH=7.2). Remove medulla by squashing. Mince the cortex, rinse and homogenize in a chilled ground glass tissue grinder with 15 mL sucrose buffer. Centrifuge at 3000×g for 10 min. (Sorvall RCSC centrifuge, SS34 rotor 6200 rpm). Decant supernatant through gauze. Centrifuge combined supernatant at 12000×g for 13 min. (Beckman ultracentrifuge, 80Ti rotor, 13000 rpm). Centrifuge the supernatant from the previous step at 102000×g for 60 min. (Beckman ultracentrifuge, 80Ti rotor, 38200 rpm). All steps are carried out at 4° C. Resuspend the pellet in 0.5 mL assay buffer (50 mM Tris HCI, 5 mM MgCl2, 0.2% BSA (protease-free), pH=7.4, 25° C.). Store on ice. Determine membrane protein by Lowry or Bradford assay with BSA as standard. The binding assay is performed in triplicate, in 12×75 mm plastic test tubes or in a 96-well plate (final volume of 0.25 mL). Add 140 μL assay buffer. Add 10 μL cold A II (to give final concentrations of 10^-10 -10^-7 M for standard curve and 10^-4 M for nonspecific binding), compounds (e.g., for final concentrations of 25 and 100 μM or 1 μM, 10 nM and 100 nM) in 50% DMSO, or 50% DMSO as a control. Add 50 μL membrane suspension (e.g., 10 μg protein). Preincubate for 30 min at 25° C. Add 50 μL ^125 I-A II which has been prepared as shown below (final concentration=1 nM). Incubate for 35 min at 25° C. Stop the incubation by adding 1 mL ice-cold buffer (assay buffer without BSA). Filter with GF/C filters on cell harvester (filters are presoaked in the assay buffer containing 1% polyethyleneimine). Rinse assay tubes 3× with 5 mL cold buffer (assay buffer without BSA). Cut and deposit the filter discs into test tubes and count on gamma counter for 1 min. Adjust the specific activity of ^125 I-A II purchased from New England Nuclear to 500 μCi/nmole by adding cold A II in water. Calculate the quantities of hot A II and the cold A II needed and make the dilution. Aliquot, seal tight, and store frozen until needed. Calculate the concentration of the total A II (hot+cold) after dilution. On the day of assay, thaw the frozen aliquot and adjust the volume to give a concentration of 5 pmole/mL (or 0.25 pmole/50 μL) with assay buffer (+protease-free BSA). For final concentration of 1 nM ^125 I-A II in the assay, add 50 μL (or 0.25 pmole) per test tube to a final volume of 250 μL. The results of these binding assays are reported as the inhibitory concentration of the test compound necessary to achieve fifty percent displacement of radiolabeled angiotensin II from its receptor (IC50), or the percent displacement of binding of A II at its receptor at 10^-8 M concentration of test compound (% I).

IC50 | Structure (SMILES)
200 µM | CCCc1nc2ccccc2n1CC1=C(c2ccccc2-c2nnn[nH]2)CCC1 [Example 1, 2-Propyl-1-[[2-[2-(1H-tetrazol-5-yl)phenyl]-1-cyclopentenyl]methyl]-1H-benzimidazole]
73 µM | CCCc1nc2ccccc2n1CC1=C(c2cccc(-c3nnn[nH]3)c2)CCC1 [Example 2, 2-Propyl-1-[[2-[3-(1H-tetrazol-5-yl)phenyl]-1-cyclopentenyl]methyl]1H-benzimidazole]
20 µM | CCCc1nc2ccccc2n1Cc1ccc(C2=C(C(=O)O)CCC2)cc1 [Example 3, 2-[4-[(2-Propyl-1H-benzimidazol-1-yl)methyl]phenyl]-1-cyclopentene-1-carboxylic Acid]
25 µM | CCCc1nc2ccccc2n1Cc1ccc(C2CCCC2C(=O)O)cc1 (centres unmarked) [Example 4, 2-[4-[(2-Propyl-1H-benzimidazol-1-yl)methyl]phenyl]cyclopentane-1-carboxylic Acid]
30 µM | CCCc1nc2ccccc2n1CCC1CCN(c2ccccc2-c2nnn[nH]2)CC1 [Example 6, 2-Propyl-1-[2-[1-[2-(1H-tetrazol-5-yl)phenyl]-4-piperidinyl]ethyl]-1H-benzimidazole]
24 µM | CCCc1nc2ccccc2n1Cc1ccc(-c2ccccc2-c2nnn[nH]2)nc1 [Example 7, 2-Propyl-1-[[2-[2-(1H-tetrazol-5-yl)phenyl]-5-pyridinyl]methyl]-1H-benzimidazole]
15 µM | CCCc1nc2c(C)cccc2n1Cc1ccc(-c2ccccc2-c2nnn[nH]2)nc1 [Example 8, 4-Methyl-2-propyl-1-[[2-[2-(1H-tetrazol-5-yl)phenyl]-5-pyridinyl]methyl]-1H-benzimidazole]
4.5 µM | FC(F)(F)c1nc2c(c(NCc3ccc(-c4ccccc4-c4nn[nH]n4)nc3)n1)CCCC2 [Example 9]
200 µM | CCCc1nc2ccccc2n1Cc1ccc(-c2ncccc2C(=O)O)cc1 [Example 10, 2-[4-[(2-Propyl-1H-benzimidazol-1-yl)methyl]phenyl]-3-pyridinecarboxylic Acid]

Structure (SMILES) | IC50
CCCc1nc2ccccc2n1CCN1CCN(c2ccccc2-c2nnn[nH]2)CC1 [Example 5, 2-Propyl-1-[2-[4-[2-(1H-tetrazol-5-yl)phenyl]-1-piperazinyl]ethyl]-1H-benzimidazole Potassium Salt] | 43 µM
